# Experimental data reported in ChEMBL document CHEMBL5120864, “Targeting Enhancer of Zeste Homolog 2 for the Treatment of Hematological Malignancies and Solid Tumors: Candidate Structure-Activity Relationships Insights and Evolution Prospects” (J Med Chem, 2022).
# pIC50: −log10 of the molar value.
# Tests used:
# [1] = biological target: T1, Histone-lysine N-methyltransferase EZH2 (Homo sapiens, UniProt Q15910, Y641F)
# KARPAS-422 [2] = experiment: animal or person; assay type: functional, Homo sapiens; settings: Mus musculus, route po
# [3] = biological target: T2, Histone-lysine N-methyltransferase EZH2 (Homo sapiens, UniProt Q15910)
# PC-3 [4] = experiment: cells; assay type: functional, cell-based; settings: Homo sapiens, PC-3, 24 h
# MCF7 [5] = experiment: cells; assay type: functional, cell-based; settings: Homo sapiens, MCF7, 24 h
# HepG2 [6] = assay type: functional, Homo sapiens; settings: time 24 hrs
# PC-3 [7] = assay type: functional, Homo sapiens; settings: time 24 hrs
# HepG2 [8] = experiment: cells; assay type: functional, cell-based; settings: Homo sapiens, HepG2, 24 h
# MCF7 [9] = assay type: functional, Homo sapiens; settings: time 24 hrs
# [10] = mouse, in vivo
# [11] = biological target: T2, Histone-lysine N-methyltransferase EZH2; remark: listed apart in the source
# [12] = biological target: T3, Histone-lysine N-methyltransferase EZH1 (Homo sapiens, UniProt Q92800)
# T3 sequence (Q92800 whole entry): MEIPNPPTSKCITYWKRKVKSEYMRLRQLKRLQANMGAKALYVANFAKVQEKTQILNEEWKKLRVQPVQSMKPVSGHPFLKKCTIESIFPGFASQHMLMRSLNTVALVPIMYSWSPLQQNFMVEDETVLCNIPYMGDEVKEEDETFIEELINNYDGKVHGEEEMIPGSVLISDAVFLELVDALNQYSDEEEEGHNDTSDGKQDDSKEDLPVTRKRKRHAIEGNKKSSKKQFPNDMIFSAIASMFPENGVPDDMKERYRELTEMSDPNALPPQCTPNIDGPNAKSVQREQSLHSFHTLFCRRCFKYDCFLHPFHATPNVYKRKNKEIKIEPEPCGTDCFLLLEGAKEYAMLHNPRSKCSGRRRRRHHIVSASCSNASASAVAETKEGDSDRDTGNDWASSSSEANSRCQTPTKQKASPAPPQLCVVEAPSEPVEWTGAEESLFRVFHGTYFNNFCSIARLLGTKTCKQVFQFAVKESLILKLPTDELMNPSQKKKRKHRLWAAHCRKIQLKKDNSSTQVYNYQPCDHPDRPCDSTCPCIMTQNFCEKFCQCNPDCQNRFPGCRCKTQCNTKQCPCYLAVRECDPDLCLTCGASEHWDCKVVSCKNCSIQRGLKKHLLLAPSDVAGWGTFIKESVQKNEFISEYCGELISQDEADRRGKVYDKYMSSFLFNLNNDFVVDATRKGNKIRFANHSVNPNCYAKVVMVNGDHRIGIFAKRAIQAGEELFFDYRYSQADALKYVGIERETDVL
# MDA-MB-231 [13] = experiment: cells; assay type: functional, cell-based; settings: Homo sapiens, MDA-MB-231, 72 h
# BT-474 = experiment: cells; assay type: functional, cell-based; settings: Homo sapiens, BT-474, 72 h
# cells = assay type: functional, cell-based; settings: Homo sapiens, WSU-FSCCL, 48 h
# physchem = settings: buffer
# NCI-H1975 = experiment: cells; assay type: functional, cell-based; settings: Homo sapiens
# NCI-H1299 = experiment: cells; assay type: functional, cell-based; settings: Homo sapiens
# A549 = experiment: cells; assay type: functional, cell-based; settings: Homo sapiens
# PC-3 [14] = experiment: cells; assay type: functional, cell-based; settings: Homo sapiens
# [15] = biological target: T2, Histone-lysine N-methyltransferase EZH2; remark: listed apart in the source
# in vivo = settings: rat
# MDA-MB-231 [16] = experiment: cells; assay type: functional, cell-based; settings: Homo sapiens, MDA-MB-231, 96 h
# HCT-15 = experiment: cells; assay type: functional, cell-based; settings: Homo sapiens, HCT-15, 96 h
# KARPAS-422 [17] = experiment: cells; assay type: functional; settings: Homo sapiens, time 10-15 day
# [18] = biological target: T3, Histone-lysine N-methyltransferase EZH1; remark: listed apart in the source
# [19] = biological target: T1, Histone-lysine N-methyltransferase EZH2; remark: listed apart in the source
# ZR-75-1 = experiment: cells; assay type: functional, cell-based; settings: Homo sapiens, ZR-75-1, 96 h
# MCF7 [20] = experiment: cells; assay type: functional, cell-based; settings: Homo sapiens, MCF7, 96 h
# [21] = biological target: T2, Histone-lysine N-methyltransferase EZH2; remark: listed apart in the source
# [22] = biological target: T3, Histone-lysine N-methyltransferase EZH1; remark: listed apart in the source
# Pfeiffer = experiment: cells; assay type: functional, cell-based; settings: Homo sapiens, 96 h
# SU-DHL-6 = experiment: cells; assay type: functional, cell-based; settings: Homo sapiens, SU-DHL-6, 96 h
# [23] = biological target: T2, Histone-lysine N-methyltransferase EZH2; remark: listed apart in the source
# T2 sequence (Q15910 whole entry): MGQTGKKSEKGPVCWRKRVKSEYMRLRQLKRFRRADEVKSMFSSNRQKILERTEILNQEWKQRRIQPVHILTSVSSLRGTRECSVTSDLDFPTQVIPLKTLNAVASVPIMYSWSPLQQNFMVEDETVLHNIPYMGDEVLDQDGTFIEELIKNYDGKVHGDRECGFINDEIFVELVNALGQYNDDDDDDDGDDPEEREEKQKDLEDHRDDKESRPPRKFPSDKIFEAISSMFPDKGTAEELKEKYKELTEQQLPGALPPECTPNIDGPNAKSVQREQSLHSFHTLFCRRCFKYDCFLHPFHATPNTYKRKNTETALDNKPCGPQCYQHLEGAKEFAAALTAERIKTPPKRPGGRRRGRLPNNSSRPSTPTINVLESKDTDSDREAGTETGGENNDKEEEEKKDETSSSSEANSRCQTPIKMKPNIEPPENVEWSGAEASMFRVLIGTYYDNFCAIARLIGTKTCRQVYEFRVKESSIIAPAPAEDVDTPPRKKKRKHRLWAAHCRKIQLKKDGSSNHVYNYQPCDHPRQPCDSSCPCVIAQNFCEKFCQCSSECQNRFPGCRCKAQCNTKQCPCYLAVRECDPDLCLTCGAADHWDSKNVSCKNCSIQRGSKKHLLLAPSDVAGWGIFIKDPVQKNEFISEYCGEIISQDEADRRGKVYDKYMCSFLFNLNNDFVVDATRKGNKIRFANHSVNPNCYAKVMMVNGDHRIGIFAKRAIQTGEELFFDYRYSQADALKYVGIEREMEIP
# T1 sequence (Q15910 whole entry Y641F): as the sequence (Q15910 whole entry) above, with Y641F counted along it
structure (smiles),measurement,setting,value
COC1CN([C@H]2CC[C@H]([C@@H](C)c3scc(C(=O)NCc4c(C)cc(C)[nH]c4=O)c3C)CC2)C1,pIC50,[1],9.03
same,inhibition in vivo at 50 mg/kg,KARPAS-422 [2],53%
same,pIC50,[3],8.84
COc1ccc(C2SCCC(=O)N2Nc2nc3ccccc3[nH]2)cc1 (configuration not stated),pIC50,PC-3 [4],4.57
same,pIC50,MCF7 [5],4.78
same,inhibition (INH),HepG2 [6],64%
same,inhibition (INH),PC-3 [7],36.7%
same,pIC50,HepG2 [8],5.05
same,inhibition (INH),MCF7 [9],50.8%
COc1cc(C)[nH]c(=O)c1CNC(=O)c1c(C)n(C(C)C2CCN(C)C(C(F)(F)F)C2)c2ccccc12 (configuration not stated),CL,[10],55 µL/min/mg
same,pIC50,[1],> 7.00
same,pIC50,[11],> 3.40
same,pIC50,[3],> 7.00
CCC(CC)n1ccc2c(C(=O)NCc3c(C)cc(C)[nH]c3=O)cc(C#N)cc21,pIC50,[12],7.89
COc1cc2nc(N3CCN(C)CC3)nc(NC3CCN(Cc4ccccc4)CC3)c2cc1OC,pIC50,MDA-MB-231 [13],5.37
same,pIC50,BT-474,5.68
same,pIC50,cells,5.47
CCN(c1cc(-c2ccccc2)cc(C(=O)NCc2c3c(c(C)[nH]c2=O)CCCC3)c1C)C1CCOCC1,solubility,physchem,185 µg/mL
Nc1nccc2c1ncn2[C@@H]1C=C(CO)[C@@H](O)[C@H]1O,pIC50,NCI-H1975,7.10
same,pIC50,NCI-H1299,6.68
same,pIC50,A549,6.62
same,pIC50,PC-3 [14],6.72
same,pIC50,[15],7.10
same,half-life,in vivo,1.1 h
COc1cccc2nc(N3CCCN(C)CC3)cc(NC3CCN(C)CC3)c12,pIC50,MDA-MB-231 [16],5.61
same,pIC50,HCT-15,5.12
CCN1CCN(c2ccc(-c3cc(C(=O)NCc4c(C)cc(C)[nH]c4=O)c(C)c4c3O[C@](C)(CN3CCOCC3)O4)cn2)CC1,GI50,KARPAS-422 [17],210 nM
CCN(c1cc(-c2ccc(N3CCN(C)CC3)cc2)cc(C(=O)NCc2c3c(c(C)[nH]c2=O)CCCC3)c1C)C1CCOCC1,pIC50,[18],7.09
same,pIC50,[19],7.82
same,pIC50,ZR-75-1,7.05
same,pIC50,MCF7 [20],6.00
C=CC(=O)Nc1cc(-c2ccc(N3CCNCC3)nc2)cc(C(=O)NCc2c(CC)cc(C)[nH]c2=O)c1C,pIC50,[21],7.33
CCN(c1cc(-c2ccc(CN3CCN(C)CC3)cc2)cc(C(=O)NCc2c3c(c(C)[nH]c2=O)CCCC3)c1C)C1CCCCC1,pIC50,[19],6.74
same,pIC50,[22],6.86
same,pIC50,Pfeiffer,5.84
same,pIC50,SU-DHL-6,5.70
same,pIC50,[23],8.01
